We go through 45 compounds from BindingDB's records for doi:10.1021/acs.jmedchem.0c00807 (University of Oxford, 2020).

The assay is described as follows: Modulation of human utrophinA expressed in mouse H2K cells assessed as upregulation of utrophin production after 24 hrs by luciferase reporter gene assay.
For the compound `CC(=O)Nc1ccc2oc(-c3ccc4ccccc4c3)nc2c1`, the EC50 (usually the concentration needed to bring the measured effect to its halfway point) came out at 0.01 µM.
For `CC(C)C(=O)Nc1ccc2oc(-c3ccc4ccccc4c3)nc2c1`, the EC50 was found to be 0.038 µM.
Under `O=S1(=O)CCCN1c1ccc2oc(-c3ccc4ccccc4c3)nc2c1` stands 0.11 µM.
Under `CNS(=O)(=O)c1ccc2oc(-c3ccc4ccccc4c3)nc2c1` stands 0.146 µM; under `CCP(=O)(OC)c1ccc2oc(-c3ccc4ccccc4c3)nc2c1` (stereo not given), 0.004 µM; under `CCP(=O)(OC)c1ccc2nc(-c3ccc4ccccc4c3)oc2c1` (stereo not given), 0.071 µM.
Under `CCOP(=O)(CC)c1ccc2oc(-c3ccc4ccccc4c3)nc2c1` (stereo not given) stands 0.026 µM; under `CCOP(=O)(CC)c1ccc2nc(-c3ccc4ccccc4c3)oc2c1` (stereo not given), 0.108 µM.
As to `COP(=O)(c1ccc2oc(-c3ccc4ccccc4c3)nc2c1)C(C)C` (stereo not given), the EC50 turned out to be 0.034 µM.
Take `COP(=O)(c1ccc2nc(-c3ccc4ccccc4c3)oc2c1)C(C)C` (stereo not given): the EC50 was found to be 0.234 µM.
Under `COP(=O)(c1ccc2oc(-c3ccc4ccccc4c3)nc2c1)C(C)(C)C` (stereo not given) stands 0.148 µM; under `CCP(=O)(OC)c1ccc2oc(-c3cnc4ccccc4c3)nc2c1` (stereo not given), 0.062 µM; under `CCP(=O)(OC)c1ccc2oc(-c3ccc4ncccc4c3)nc2c1` (stereo not given), 0.164 µM.
With `CCP(=O)(OC)c1ccc2oc(-c3ccc4cccnc4c3)nc2c1` (stereo not given), the EC50 was determined as 0.157 µM.
With `CCP(=O)(OC)c1ccc2oc(-c3ccc4ccncc4c3)nc2c1` (stereo not given) the figure was 0.332 µM; with `CCP(=O)(OC)c1ccc2oc(-c3ccc4cnccc4c3)nc2c1` (stereo not given), 1.14 µM; with `CCP(=O)(OC)c1ccc2nc(-c3cnc4ccccc4c3)oc2c1` (stereo not given), 0.071 µM.
In the case of `CCP(=O)(OC)c1ccc2nc(-c3ccc4ncccc4c3)oc2c1` (stereo not given), the 50% effective concentration (EC50) came to 0.085 µM.
Under `CCP(=O)(OC)c1ccc2nc(-c3ccc4cccnc4c3)oc2c1` (stereo not given) stands 0.928 µM; under `CCP(=O)(OC)c1ccc2nc(-c3ccc4ccncc4c3)oc2c1` (stereo not given), 1.14 µM.
Take `CCP(=O)(OC)c1ccc2nc(-c3ccc4cnccc4c3)oc2c1` (stereo not given): the concentration giving a half-maximal response (EC50) amounted to 1.76 µM.
On to `CCP(=O)(OC)c1ccc2oc(/C=C/c3ccccc3)nc2c1` (stereo not given), for which the EC50 worked out at 0.163 µM.
For the compound `CCP(=O)(OC)c1ccc2oc(-c3ccc(Cl)cc3)nc2c1` (stereo not given), the EC50 came to 0.112 µM.
`CCP(=O)(OC)c1ccc2oc(-c3cccc(F)c3)nc2c1` (stereo not given): the EC50 was found to be 0.823 µM.
Under `CCP(=O)(OC)c1ccc2oc(-c3ccc(C(F)(F)F)cc3)nc2c1` (stereo not given) stands 0.548 µM; under `CCP(=O)(OC)c1ccc2oc(-c3ccccc3C(F)(F)F)nc2c1` (stereo not given), 0.861 µM; under `CCP(=O)(OC)c1ccc2oc(-c3ccc(F)cc3F)nc2c1` (stereo not given), 0.777 µM.
Under `CCP(=O)(OC)c1ccc2oc(-c3cccc(Cl)c3F)nc2c1` (stereo not given) stands 0.198 µM; under `CCP(=O)(OC)c1ccc2oc(-c3ccc(Cl)c(Cl)c3)nc2c1` (stereo not given), 0.118 µM; under `CCP(=O)(OC)c1ccc2oc(-c3cccc(Cl)c3Cl)nc2c1` (stereo not given), 0.244 µM.
With `CCP(=O)(OC)c1ccc2oc(-c3c(F)ccc(Cl)c3F)nc2c1` (stereo not given) the figure was 1.77 µM.
Consider `CCP(=O)(OC)c1ccc2oc(-c3ccc(Cl)s3)nc2c1` (stereo not given), for which the concentration giving a half-maximal response (EC50) turned out to be 0.168 µM.
On to `CCP(=O)(OC)c1ccc2oc(-c3sccc3Cl)nc2c1` (stereo not given), for which the EC50 came out at 1.51 µM.
With `CCP(=O)(OC)c1ccc2oc(-c3ccc(C(F)(F)F)o3)nc2c1` (stereo not given) the figure was 1.77 µM; with `CCP(=O)(OC)c1ccc2nc(/C=C/c3ccccc3)oc2c1` (stereo not given), 0.766 µM.
Under `CCP(=O)(OC)c1ccc2nc(-c3ccc(F)cc3)oc2c1` (stereo not given) stands 1.23 µM.
With `CCP(=O)(OC)c1ccc2nc(-c3cccc(F)c3)oc2c1` (stereo not given) the figure was 2.25 µM; with `CCP(=O)(OC)c1ccc2nc(-c3ccc(F)cc3F)oc2c1` (stereo not given), 1.76 µM.
Take `CCP(=O)(OC)c1ccc2nc(-c3cccc(Cl)c3Cl)oc2c1` (stereo not given): the EC50 was determined as 1.95 µM.
With `COP(=O)(c1ccc2oc(-c3ccc(F)cc3)nc2c1)C(C)C` (stereo not given) the figure was 0.303 µM.
With `COP(=O)(c1ccccc1)c1ccc2oc(-c3ccc(F)cc3)nc2c1` (stereo not given) the figure was 0.826 µM; with `CCOP(=O)(CC)c1ccc2oc(-c3ccc(F)cc3)nc2c1` (stereo not given), 1.25 µM; with `COP(=O)(c1ccc2nc(-c3ccc(F)cc3)oc2c1)C(C)C` (stereo not given), 1.51 µM.
Turning to `CCP(=O)(OC)c1cccc2oc(-c3ccc(F)cc3)nc12` (stereo not given), the EC50 amounted to 1.19 µM.
With `CCS(=O)(=O)c1ccc2oc(-c3ccc4ccccc4c3)nc2c1` [BMN 195] the figure was 0.187 µM.
